# Test results reported in patent US8084575B2, “Millisecond activation switch for seven-transmembrane proteins” (Julius-Maximilians-Universitat, priority 2002, dated 2011).
# “Also recorded” adds a separate entry of the source. Read-outs that look alike come from different tables or passages of the source.
# Experiments:
# α2AAR-cam [1] = biological target: T1, α2AAR-cam (Mus musculus, UniProt Q01338); experiment: FRET in membranes containing α2AAR-cam in the presence of Go proteins; type: biochemical
# T1 construct: expressed in transfected cells; GIRK1 and GIRK4 co-transfected in A8)
# Description: Membrane preparation. Membrane fractions were obtained after two centrifugations at 4° C., first at 800×g for 10 min and the second at 100,000×g for 30 min. Membranes were treated with 6 M urea in 20 mM Hepes, pH 7.4, for 30 min on ice followed by centrifugation at 100,000×g for 15 min. After two washing steps at 4° C. in buffer B the membranes were resuspended in a buffer A (without BSA) and immediately used in the experiments. 20 μl aliquots of membranes were subjected to fluorescence microscopy similar to intact cells using a 20× objective.
# α2AAR-cam [2] = biological target: T1, α2AAR-cam; experiment: [3H]UK14304 binding to membranes containing α2AAR-cam with exogenous Go protein; settings: for Kd: read-out: Kd of agonist binding
# Description: Pharmacology. […] Saturation and competition binding studies were analysed with the program Prism to calculate KD- and Ki-values.
# Third, binding of G-proteins to receptors is known to enhance formation of the active, agonist-bound state.
# A2A receptors = experiment: 3H-NECA radioligand binding, adenosine receptor constructs in transiently transfected COS cells; set-up: species or system human
# Description: FIG. 12: Pharmacological properties of the Adenosine receptor constructs. A-B) Comparison between the binding (A) and signalling properties (B) of several adenosine receptor constructs with their respective wild-type receptor in transiently transfected COS cells. Adenylylcyclases activity was determined in membranes from transiently transfected COS cells as previously published (Jakobs et al., J cyclic Nucleotide Res 2 (1976) 381-392, Klotz et al., Naunyn-Schmiedeberg's Arch Pharmacol 357 (1998) 1-9). […] Data are the mean±sd of at least 3 separate experiments.
# A2A-CFP14/10-YFPC33 = experiment: Intramolecular FRET (nFRET) in HEK293 cells transfected with A2A-CFP14/10-YFPC33; type: cell-based, human
# Description: 12 h post transfection cells were replated on glass coverslips coated with poly-L-lysine and cultured for another 12-36 h.
# Cells were continuously superfused with control solution (in mM: 140 NaCl; 5.4 KCl; 2 CaCl2; 1 mM MgCl2; 10 mM Glucose and 10 HEPES/NaOH pH 7.3) using a fast solenoid valve operated superfusion system ALA-VM8 (ALA Scientific Instruments).
# α2AAR-cam [3] = biological target: T1, α2AAR-cam; type: cell-based
# α2AAR-cam [4] = biological target: T1, α2AAR-cam; experiment: Competition ligand binding, α2AAR-cam stably expressed in HEK293 cells; settings: read-out: noradrenaline affinity Ki
# Description: (§1) Pharmacology. Ligand binding, receptor number determination, cAMP assays, measurement of α2A-adrenergic receptor-activated GIRK currents and reconstitution of receptor-Go coupling were measured as previously described (Vilardaga, (2001) loc. cit.; Bünemann, J. Bio. Chem. 276 (2001), 47512-47517; Vilardaga, J. Biol. Chem. 277 (2002), 8121-8129; Richardson, J. Biol. Chem. 274 (1999), 13525-13533). Saturation and competition binding studies were analysed with the program Prism to calculate KD- and Ki-values.
# α2AAR = biological target: T2, α2AAR (Mus musculus, UniProt Q01338); experiment: Competition ligand binding, wild-type α2AAR stably expressed in HEK293 cells; settings: read-out: noradrenaline affinity Ki
# T2 construct: expressed in transfected cells
# T2 sequence (Q01338 with tags, fused parts or gaps): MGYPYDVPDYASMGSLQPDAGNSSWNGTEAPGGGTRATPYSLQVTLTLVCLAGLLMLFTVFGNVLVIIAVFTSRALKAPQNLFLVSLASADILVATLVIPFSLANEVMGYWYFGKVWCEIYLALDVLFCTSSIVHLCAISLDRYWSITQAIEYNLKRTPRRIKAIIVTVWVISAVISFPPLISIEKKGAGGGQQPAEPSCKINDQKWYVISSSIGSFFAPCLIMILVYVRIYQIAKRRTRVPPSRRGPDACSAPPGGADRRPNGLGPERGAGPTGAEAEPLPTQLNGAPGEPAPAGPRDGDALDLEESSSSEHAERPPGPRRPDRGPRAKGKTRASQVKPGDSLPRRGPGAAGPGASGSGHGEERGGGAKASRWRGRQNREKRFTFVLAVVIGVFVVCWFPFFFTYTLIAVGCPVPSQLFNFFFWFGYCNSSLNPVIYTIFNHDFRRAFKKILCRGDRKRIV
# Description: as §1
# α2AAR-cam [5] = biological target: T1, α2AAR-cam; experiment: FRET in neuronal PC-12 cells stably expressing α2AAR-cam, agonist versus inverse agonists; type: cell-based; settings: 100 μM
# Description: As documented in the appended examples, an illustrative recombinant α2A-adrenergic receptor (α2AAR-cam) was employed, whereby said α2A-adrenergic receptor (α2AAR-cam) comprises the two detectable labels YFP and CFP on the first intracellular loop and the third intracellular loop.
# The α2AAR-cam receptors were stably expressed in the neuronal cell line PC-12. […] The signals were recorded before and after exposure to agonist (NA: noradrenaline, 100 μM) and two different inverse agonists (Yoh: yohimbine and Rau:rauwolscine, 100 μM).
# PTHR-cam = biological target: T3, PTHR-cam (Homo sapiens, UniProt Q03431, INS395[…]); experiment: FRET (ratio F*535/F*480) in single HEK293 cells expressing PTHR-cam; type: cell-based; settings: intact HEK293 cells; PTH 1 μM, PTH(7-34) 3 μM
# T3 construct: expressed in transfected cells
# [6] = test system: PTHR-CFP3-loop and PTHR-YFPC-term; settings: absence or presence of PTH 1 μM
# α2AAR-cam [7] = biological target: T1, α2AAR-cam; experiment: α2A-adrenergic receptor-activated whole cell GIRK currents in HEK293 cells; type: cell-based
# Description: as §1
# Electrophysiology. Whole cell GIRK currents were measured in HEK293 cells stably expressing 6 pmol/mg membrane protein α2AR-cam 20-28 h after transient transfection with GIRK1 and GIRK4 as described previously (Bünemann, (2001), loc. cit.). Membrane currents were recorded using an EPC 9 amplifier and Pulse software (HEKA Instruments) for voltage control, data acquisition and data evaluation. Experimental conditions such as patch pipettes, internal and external solutions, voltage-clamp protocol as well as the superfusion system were the same as described previously (Bünemann, (2001), loc. cit.).
molecule,measurement,setting,value
Nc1nc2c(ncn2[C@@H]2O[C@H](COP(=O)(O)OP(=O)(O)OP(O)(O)=S)[C@@H](O)[C@H]2O)c(=O)[nH]1 [GTPγS],effect on FRET signal of saturating concentrations of UK14304,α2AAR-cam [1]; GTPγS,did not affect
same,reduction of FRET signals caused by 5 nM UK14304,"α2AAR-cam [1]; GTPγS 10 μM, Go present",more than 50%
same,reduction of the binding of 5 nM [3H]UK14304,"α2AAR-cam [2]; GTPγS 10 μM, Go present",more than 50%
Brc1c(NC2=NCCN2)ccc2nccnc12 [UK14304],decrease of binding affinity in presence of GTPγS,α2AAR-cam [2]; 10 μM GTPγS,≈ 3 fold
same,Kd,"α2AAR-cam [2]; exogenous Go (receptor:Go 1:100), without GTPγS",3.4 ± 0.8 nM
same,Kd,"α2AAR-cam [2]; exogenous Go, in presence of 10 μM GTPγS",9.6 ± 1.1 nM
CCNC(=O)[C@H]1O[C@@H](n2cnc3c(N)ncnc32)[C@H](O)[C@@H]1O [^3H-NECA],radioligand binding compared with wild-type A2A receptor,A2A receptors,no significant difference
Nc1ncnc2c1ncn2[C@@H]1O[C@H](CO)[C@@H](O)[C@H]1O [adenosine],time for nFRET to return to initial value after withdrawal of agonist,A2A-CFP14/10-YFPC33,5 to 10 s
Clc1cccc(Cl)c1N=C1NCCN1 [clonidine],FRET signal compared to the full agonist noradrenaline,α2AAR-cam [3],three-fold smaller
same,effect of simultaneous addition on noradrenaline response,α2AAR-cam [3],restored this response back to the partial response
NC[C@H](O)c1ccc(O)c(O)c1 [noradrenaline],Ki,α2AAR-cam [4],16700 ± 1400 nM
same,Ki,α2AAR,5000 ± 800 nM
same,"change of FRET signal, given alone",α2AAR-cam [3],decline of the FRET signal; also recorded: rapid decrease of the FRET signal
same,maximal apparent rate constant kobs,α2AAR-cam [3],~26 s⁻¹
same,time constant required for receptor activation,α2AAR-cam [3],less than 40 ms
same,times faster than activation of chemically labelled purified β2-adrenergic receptors,α2AAR-cam [3],more than 5000 times
Cc1ccc(N(CC2=NCCN2)c2cccc(O)c2)cc1 [phentolamine],"change of FRET signal, given alone",α2AAR-cam [3],did not alter the FRET signal
same,effect on the noradrenaline-induced FRET signal,α2AAR-cam [3],rapidly reverted the noradrenaline-induced signal
COC(=O)[C@H]1[C@H]2C[C@H]3c4[nH]c5ccccc5c4CCN3C[C@H]2CC[C@@H]1O [rauwolscine],conformational change of the receptor relative to agonist noradrenaline,α2AAR-cam [5],opposite conformational changes
COC(=O)[C@@H]1[C@H]2C[C@H]3c4[nH]c5ccccc5c4CCN3C[C@@H]2CC[C@@H]1O [yohimbine],conformational change of the receptor relative to agonist noradrenaline,α2AAR-cam [5],opposite conformational changes
"PTH7-34: truncated variant of PTH, a low affinity antagonist (LMHNLGKHLNSMERVEWLRKKLQDVHNF; Parathyroid hormone; UniProt P01270 38-65, looked up, fragment)",change in FRET signal,PTHR-cam,failed to induce a change in FRET
"PTH: parathyroid hormone, agonist of the PTH receptor",intermolecular FRET,[6],no FRET
pertussis toxin,effect of inactivating Gi and Go on noradrenaline-induced FRET signal,α2AAR-cam [3],did not affect
"α2AAR-cam: mouse α2A-adrenergic receptor with YFP in third intracellular loop and CFP on C-terminus, SEQ ID NOS: 11 and 12",speed of GIRK current activation versus wild type α2AAR,α2AAR-cam [7],not faster than the wild type
